Measurements reported in US9708334B2, “Substituted 2,4,5,6-tetrahydropyrrolo[3,4-c]pyrazole and 4,5,6,7-tetrahydro-2H-pyrazolo[4,3-c]pyridine compounds as GlyT1 inhibitors” (DART NEUROSCIENCE (CAYMAN) LTD., priority 2014, dated 2017).

Molecular target: T1, GlyT1 (Homo sapiens, UniProt P48067)
T1 construct: expressed in transfected cells
T1 sequence (P48067 1-706): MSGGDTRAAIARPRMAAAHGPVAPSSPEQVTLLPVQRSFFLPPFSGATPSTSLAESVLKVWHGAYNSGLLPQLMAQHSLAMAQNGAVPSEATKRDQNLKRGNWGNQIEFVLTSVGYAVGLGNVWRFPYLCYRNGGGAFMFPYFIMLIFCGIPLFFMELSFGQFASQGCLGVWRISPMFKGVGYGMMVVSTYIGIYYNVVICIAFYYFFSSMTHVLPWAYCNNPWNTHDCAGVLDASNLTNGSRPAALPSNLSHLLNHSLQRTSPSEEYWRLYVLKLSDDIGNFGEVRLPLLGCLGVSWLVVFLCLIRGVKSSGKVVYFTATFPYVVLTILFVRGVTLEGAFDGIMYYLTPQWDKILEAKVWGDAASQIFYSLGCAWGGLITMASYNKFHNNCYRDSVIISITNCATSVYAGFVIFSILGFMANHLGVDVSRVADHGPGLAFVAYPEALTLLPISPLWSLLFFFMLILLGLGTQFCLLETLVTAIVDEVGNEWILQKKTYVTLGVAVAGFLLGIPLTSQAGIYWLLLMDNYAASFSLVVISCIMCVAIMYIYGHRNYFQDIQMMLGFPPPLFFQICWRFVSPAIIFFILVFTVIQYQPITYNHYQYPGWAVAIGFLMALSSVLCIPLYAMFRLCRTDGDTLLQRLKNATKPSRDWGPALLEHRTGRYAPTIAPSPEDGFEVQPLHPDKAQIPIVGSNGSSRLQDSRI
Test: Glycine Transporter 1 (GlyT1) uptake assay, scintillation proximity assay of [14C]-glycine uptake
Format: cell-based
Conditions: SPA, four parameter logistic fit, read-out: GlyT1 (pIC50) (converted)
Procedure: Glycine Transporter 1 (GlyT1) Uptake Assay
Plates were then read on a MicroBeta plate counter (Perkin Elmer). Dose-response data for tested compounds were analyzed and curves were fit using a four parameter logistic fit to determine IC50 values. […]

| SMILES | IC50 |
| --- | --- |
| CC(C)Oc1cc(-n2cc3c(n2)CN(C(=O)c2cc(C#N)ccc2OC(C)C(F)(F)F)C3)ccn1 (stereo in doubt) [Example 372, 3-{2-[2-(Propan-2-yloxy)pyridin-4-yl]-2H 4H 5H 6H-pyrrolo[3,4-c]pyrazole-5-carbonyl}-4-{[(2S)-1 1 1-trifluoropropan-2-yl]oxy}benzonitrile] | 100 to 1000 nM |
| CCC(C)Cn1cc2c(n1)CN(C(=O)c1cc(S(C)(=O)=O)ccc1N1CCC(F)(F)CC1)C2 (stereo in doubt) [Example 429, 4 4-Difluoro-1-(4-methanesulfonyl-2-{2-[(2S)-2-methylbutyl]-2H 4H 5H 6H-pyrrolo[3,4-c]pyrazole-5-carbonyl}phenyl)piperidine] | < 100 nM |
| CC(C)Oc1ccc(S(C)(=O)=O)cc1C(=O)N1Cc2cn(-c3ccc(F)cc3)nc2C1 [Example 1, (2-(4-Fluorophenyl)pyrrolo[3,4-c]pyrazol-5(2H,4H,6H)-yl)(2-isopropoxy-5-(methylsulfonyl)phenyl)methanone] | < 100 nM |
| CC(C)Oc1ccc(S(C)(=O)=O)cc1C(=O)N1Cc2cn(-c3ccc(F)c(F)c3)nc2C1 [Example 2, (2-(3,4-Difluorophenyl)pyrrolo[3,4-c]pyrazol-5(2H,4H,6H)-yl)(2-isopropoxy-5-(methylsulfonyl)phenyl)methanone] | < 100 nM |
| Cc1cc(-n2cc3c(n2)CN(C(=O)c2cc(C#N)ccc2OCC(C)(C)C)C3)ccn1 [Example 3, 3-(2-(2-Methylpyridin-4-yl)-2,4,5,6-tetrahydropyrrolo[3,4-c]pyrazole-5-carbonyl)-4-(neopentyloxy)benzonitrile] | < 100 nM |
| COc1c(C#N)ccc(OC(C)C(F)(F)F)c1C(=O)N1CCc2nn(-c3ccc(F)cc3)cc2C1 (stereo not drawn) [Example 4, 3-(2-(4-Fluorophenyl)-4,5,6,7-tetrahydro-2H-pyrazolo[4,3-c]pyridine-5-carbonyl)-2-methoxy-4-((1,1,1-trifluoropropan-2-yl)oxy)benzonitrile] | 100 to 1000 nM |
| CC(Oc1ccc(C(=O)O)c(Cl)c1C(=O)N1Cc2cn(-c3ccc(F)cc3)nc2C1)C(F)(F)F (stereo not drawn) [Example 5, 2-Chloro-3-(2-(4-fluorophenyl)-2,4,5,6-tetrahydropyrrolo[3,4-c]pyrazole-5-carbonyl)-4-((1,1,1-trifluoropropan-2-yl)oxy)benzoic acid] | > 10000 nM |
| CC(Oc1ccc(C(=O)N2CCC2)c(Cl)c1C(=O)N1CCc2nn(-c3ccc(F)cc3)cc2C1)C(F)(F)F (stereo not drawn) [Example 6, 1-{2-Chloro-3-[2-(4-fluorophenyl)-2H 4H 5H 6H 7H-pyrazolo[4,3-c]pyridine-5-carbonyl]-4-[(1 1 1-trifluoropropan-2-yl)oxy]benzoyl}azetidine] | > 10000 nM |
| CC(Oc1ccc(C(N)=O)cc1C(=O)N1CCc2nn(-c3ccc(F)cc3)cc2C1)C(F)(F)F (stereo not drawn) [Example 7, 3-(2-(4-Fluorophenyl)-4,5,6,7-tetrahydro-2H-pyrazolo[4,3-c]pyridine-5-carbonyl)-4-((1,1,1-trifluoropropan-2-yl)oxy)benzamide] | 1000 to 10000 nM |
| Cc1cc(-n2cc3c(n2)CN(C(=O)c2cc(C#N)ccc2-c2cccc(F)c2)C3)ccn1 [Example 8, 4-(3-Fluorophenyl)-3-[2-(2-methylpyridin-4-yl)-2H 4H 5H 6H-pyrrolo[3,4-c]pyrazole-5-carbonyl]benzonitrile] | < 100 nM |
| CC(Oc1ccc(C#N)cc1C(=O)N1Cc2cn(-c3ccc(F)cc3)nc2C1)C(F)F (stereo not drawn) [Example 9, 4-((1,1-Difluoropropan-2-yl)oxy)-3-(2-(4-fluorophenyl)-2,4,5,6-tetrahydropyrrolo[3,4-c]pyrazole-5-carbonyl)benzonitrile] | < 100 nM |
| COc1c(C#N)ccc(CCC(C)(C)C)c1C(=O)N1Cc2cn(-c3ccc(F)cc3)nc2C1 [Example 10, 4-(3,3-Dimethylbutyl)-3-(2-(4-fluorophenyl)-2,4,5,6-tetrahydropyrrolo[3,4-c]pyrazole-5-carbonyl)-2-methoxybenzonitrile] | 100 to 1000 nM |
| COc1c(C#N)ccc(OC(C)C(F)F)c1C(=O)N1Cc2cn(-c3ccc(F)cc3)nc2C1 (stereo not drawn) [Example 11, 4-[(1 1-Difluoropropan-2-yl)oxy]-3-[2-(4-fluorophenyl)-2H 4H 5H 6H-pyrrolo[3,4-c]pyrazole-5-carbonyl]-2-methoxybenzonitrile] | < 100 nM |
| COc1c(C#N)ccc(C2(F)CCC(F)(F)CC2)c1C(=O)N1CCc2nn(-c3ccc(F)cn3)cc2C1 [Example 12, 3-[2-(5-Fluoropyridin-2-yl)-2H 4H 5H 6H 7H-pyrazolo[4,3-c]pyridine-5-carbonyl]-2-methoxy-4-(1 4 4-trifluorocyclohexyl)benzonitrile] | 100 to 1000 nM |
| COc1c(C#N)ccc(C2(F)CCC(F)(F)CC2)c1C(=O)N1CCc2nn(-c3cccnc3)cc2C1 [Example 13, 2-Methoxy-3-[2-(pyridin-3-yl)-2H 4H 5H 6H 7H-pyrazolo[4,3-c]pyridine-5-carbonyl]-4-(1 4 4-trifluorocyclohexyl)benzonitrile] | 1000 to 10000 nM |
| COc1c(C#N)ccc(C2(F)CCOCC2)c1C(=O)N1CCc2nn(-c3ccc(F)cn3)cc2C1 [Example 14, 4-(4-Fluorooxan-4-yl)-3-[2-(5-fluoropyridin-2-yl)-2H 4H 5H 6H 7H-pyrazolo[4,3-c]pyridine-5-carbonyl]-2-methoxybenzonitrile] | 100 to 1000 nM |
| COc1c(C#N)ccc(C2(F)CCC(F)(F)CC2)c1C(=O)N1Cc2cn(-c3ccc(F)cn3)nc2C1 [Example 15, 3-[2-(5-Fluoropyridin-2-yl)-2H 4H 5H 6H-pyrrolo[3,4-c]pyrazole-5-carbonyl]-2-methoxy-4-(1 4 4-trifluorocyclohexyl)benzonitrile] | 100 to 1000 nM |
| COc1cc(-n2cc3c(n2)CN(C(=O)c2c(O[C@@H](C)C(F)(F)F)ccc(C#N)c2Cl)C3)ccn1 [Example 16, 2-Chloro-3-[2-(2-methoxypyridin-4-yl)-2H 4H 5H 6H-pyrrolo[3,4-c]pyrazole-5-carbonyl]-4-{[(2S)-1 1 1-trifluoropropan-2-yl]oxy}benzonitrile] | < 100 nM |
| Cc1cc(-n2cc3c(n2)CN(C(=O)c2c(O[C@@H](C)C(F)(F)F)ccc(C#N)c2Cl)C3)ccn1 [Example 17, 2-Chloro-3-[2-(2-methylpyridin-4-yl)-2H 4H 5H 6H-pyrrolo[3,4-c]pyrazole-5-carbonyl]-4-{[(2S)-1 1 1-trifluoropropan-2-yl]oxy}benzonitrile] | < 100 nM |
| COc1c(C#N)ccc(O[C@@H](C)C(F)(F)F)c1C(=O)N1Cc2cn(-c3ccnc(C)c3)nc2C1 [Example 18, 2-Methoxy-3-[2-(2-methylpyridin-4-yl)-2H 4H 5H 6H-pyrrolo[3,4-c]pyrazole-5-carbonyl]-4-{[(2S)-1 1 1-trifluoropropan-2-yl]oxy}benzonitrile] | < 100 nM |
| Cc1cccc(-n2cc3c(n2)CN(C(=O)c2c(O[C@@H](C)C(F)(F)F)ccc(C#N)c2Cl)C3)n1 [Example 19, 2-Chloro-3-[2-(6-methylpyridin-2-yl)-2H 4H 5H 6H-pyrrolo[3,4-c]pyrazole-5-carbonyl]-4-{[(2S)-1 1 1-trifluoropropan-2-yl]oxy}benzonitrile] | < 100 nM |
| COc1c(C#N)ccc(C2(F)CCC2)c1C(=O)N1Cc2cn(-c3cccc(C)n3)nc2C1 [Example 20, 4-(1-Fluorocyclobutyl)-2-methoxy-3-[2-(6-methylpyridin-2-yl)-2H 4H 5H 6H-pyrrolo[3,4-c]pyrazole-5-carbonyl]benzonitrile] | 100 to 1000 nM |
| COc1c(C#N)ccc(C2(F)CCOCC2)c1C(=O)N1Cc2cn(-c3cccc(C)n3)nc2C1 [Example 21, 4-(4-Fluorooxan-4-yl)-2-methoxy-3-[2-(6-methylpyridin-2-yl)-2H 4H 5H 6H-pyrrolo[3,4-e]pyrazole-5-carbonyl]benzonitrile] | 100 to 1000 nM |
| Cc1cccc(-n2cc3c(n2)CN(C(=O)c2c(OCC(F)(F)F)ccc(C#N)c2Cl)C3)n1 [Example 22, 2-Chloro-3-[2-(6-methylpyridin-2-yl)-2H 4H 5H 6H-pyrrolo[3,4-c]pyrazole-5-carbonyl]-4-(2 2 2-trifluoroethoxy)benzonitrile] | 100 to 1000 nM |
| COc1c(C#N)ccc(C2(F)CCC2)c1C(=O)N1Cc2cn(-c3cncc(F)c3)nc2C1 [Example 23, 4-(1-Fluorocyclobutyl)-3-[2-(5-fluoropyridin-3-yl)-2H 4H 5H 6H-pyrrolo[3,4-c]pyrazole-5-carbonyl]-2-methoxybenzonitrile] | 100 to 1000 nM |
| COc1c(C#N)ccc(C2(F)CCOCC2)c1C(=O)N1Cc2cn(-c3cncc(F)c3)nc2C1 [Example 24, 4-(4-Fluorooxan-4-yl)-3-[2-(5-fluoropyridin-3-yl)-2H 4H 5H 6H-pyrrolo[3,4-c]pyrazole-5-carbonyl]-2-methoxybenzonitrile] | 100 to 1000 nM |
| N#Cc1ccc(OCC(F)(F)F)c(C(=O)N2Cc3cn(-c4cncc(F)c4)nc3C2)c1Cl [Example 25, 2-Chloro-3-[2-(5-fluoropyridin-3-yl)-2H 4H 5H 6H-pyrrolo[3,4-c]pyrazole-5-carbonyl]-4-(2 2 2-trifluoroethoxy)benzonitrile] | 100 to 1000 nM |
